{"source": "patent US10220040B2", "about": "“Compounds, compositions and methods useful for cholesterol mobilization” (Cerenis Therapeutics Holding SA, priority 2010, dated 2019)", "key": {"C57Bl6 mice": {"test_system": "C57Bl6 mice", "assay": "Bile acids physiology after IV injection in mice", "assay_type": "in vivo", "settings": "intravenously 10 nmol/kg, after 4 h; effect slightly higher than with Cangrelor", "description": "FIG. 5A-B: Single-dose effect of the illustrative compounds of the invention on bile acids secretion after IV injection. Mice were fasted for 2 hours and then injected in the caudal vein with the selected molecules (10 nmol/kg) in PBS solution (100 μl). 4 hours later the bile content was analyzed. FIG. 5A. Data are expressed as the concentration of bile acids. FIG. 5B. Data are expressed as the pool of bile acids per mouse (*p<0.05, **p<0.005, ***p<0.0001). Group of animals n=5.\nBile acids are derived from cholesterol and their synthesis is the predominant pathway for catabolism of cholesterol. The HDL uptake by the liver is directly connected with the bile acids secretion and the bile cholesterol clearance. […] An increase of bile acids concentration as well as of the bile volume was observed. All the compounds responded as well as or even better than the control compound (Reference Compound).\nBile acids were diluted in PBS (1:5000) and the concentration was measured according to the manufacturer protocol with slight modifications. Concentrations of bile acids in the standard curve were varied from […] and the enzymatic reaction was performed for 20 minutes. 4 μl of 1:5000 bile dilution was used for concentration determination."}, "[1]": {"test_system": "P2Y13 knock-down Hepa 1-6 cells", "assay": "HDL uptake on P2Y13 knock-down Hepa 1-6 cells", "assay_type": "cell-based, mouse", "settings": "in presence of Compound IIa (1 μM); doxycycline 72 hours; p<0.005", "description": "FIG. 15: HDL uptake on P2Y13 knock-down Hepa 1-6 cells. Hepa 1-6 cells transduced with lentiviral particles coding the P2Y13 shRNA were induced by the addition of doxycycline for 72 hours. Cells were incubated for 10 min at 37° C. with 75 μg/ml ^3H cholesterol ether HDL and Compound IIa (1 μM). Data are expressed as the percentage of internalized radioactivity with respect to the control value (set as […]).*p<0.05, **p<0.005.\nIn order to relate the specific P2Y13 HDL uptake to the illustrative compounds of the invention, a knock-down P2Y13 in a mouse liver cell line (Hepa 1-6) was investigated. Lentiviral particles coding for the mouse P2Y13 shRNA and inducible by the addition of doxycycline onto the cells (pTRIPZ vector from Open Biosystem) were used. In presence of doxycycline, a decrease of the P2Y13 mRNA (FIG. 11) was observed. The uptake of HDL on this cell line was measured in the presence and the absence of Compound IIa and doxycycline (FIG. 12). A significant decrease of HDL uptake (8.5%) was observed when the cells were treated with doxycycline (group vehicle—p<0.05).\nTransduced Hepa 1-6 cells were plated at 300,000 cells/well in 6×-well plates. […]\nThe lentiviral production in HEK 293T and authorization for lentiviral production was obtained by Vectalys. […] 24 hours after transduction, the number of cells was counted. […]"}, "apoE −/− mice": {"test_system": "apoE −/− mice", "assay": "ApoE−/− mice flow cessation model (ligated carotid, Western diet)", "assay_type": "in vivo", "from_the_text": "FIG. 17A-J: Dose-response effect of P2Y13 agonist on atherosclerotic plaque progression in ApoE^−/− mice. ApoE^−/− mice (n=7) were ligated on the upper part of the left carotids. On the day of the surgery the animals were placed on a Western diet and given an oral gavage of vehicle or increasing doses of Compound IIa. Ligated carotids were lipid extracted in 2:1 chloroform/methanol. FIG. 17A: the concentrations in unesterified cholesterol (dark bars) and total cholesterol (superimposed gray bars) were measured by HPLC. FIG. 17E and FIG. 17H: hematoxylin eosin staining of longitudinal sections of ApoE^−/− mice carotids. FIG. 17F and FIG. 17I: Oil Red O staining of longitudinal sections of ApoE^−/− mice carotids. FIG. 17G and FIG. 17J: CD-68 antibody staining of longitudinal sections of ApoE^−/− mice carotids. FIG. 17B: quantification of the intima/media ratio (n=10). FIG. 17C: Oil Red O positive staining quantification (n=10). FIG. 17D: CD68 antibody staining quantification (n=10). The mice were dosed for 2 weeks with vehicle (FIG. 17E, FIG. 17F and FIG. 17G) or Compound IIa at 100 μg/kg (FIG. 17H, FIG. 17I and FIG. 17J).\nApoE^−/− mice “flow cessation model”: Left carotid of apoE^−/− mice were ligatured and placed on Western diet. These mice were given Compound IIa once a day at 100 μg/kg (0.5% CMC, 0.2% Tween80) for 2 weeks.\nThe left carotid fixed in formalin was embedded in OCT and frozen at −20° C. Four step frozen sections of 50 μm separated one from the other were processed and stained with Oil red O (ORO). Macrophages were detected using primary rat monoclonal anti CD-68 antibody (Abcam).\nThe effect of the stimulation of the P2Y13r pathway by the agonists on the atherosclerotic plaque lesions in apoE −/− mice that are very susceptible to develop atherosclerosis on a short term Western (i.e. high-cholesterol) diet was investigated. […] The quantification of plaque components by histo-pathological analysis of the treated carotids with hematoxylin-eosin (FIG. 17B, E, H), oil-red O staining (FIG. 17C, F, I) and with CD68 antibody (specific of the macrophages), (FIG. 17D, G, J) further confirmed this observation."}}, "data": [{"smiles": "CN(C)c1ncc(CN2CCC(c3cc(O)nc(N4CCOCC4)n3)CC2)cn1", "note": "[Compound IIa, 6-[1-(2-Dimethylaminopyrimidin-5-ylmethyl)-piperidin-4-yl]-2-morpholin-4-yl-pyrimidin-4-ol]", "values": [{"measurement": "bile acids (BA) and free cholesterol secretion into bile", "setting": "C57Bl6 mice", "value": "increase"}, {"measurement": "decrease of HDL uptake when cells were treated with doxycycline (P2Y13 knock-down)", "setting": "[1]", "value": 17.5, "unit": "%"}, {"measurement": "cholesterol deposit in non-inflammatory right carotids", "setting": "apoE −/− mice; 100 μg/kg, vehicle 18.2+/−3.6", "value": "7.5+/−3.4 nmole/mg of tissue"}, {"measurement": "progression of the atherosclerosis lesions (lesion cholesterol content) compared to control animals", "setting": "apoE −/− mice; oral dosing for 2 weeks along with high-cholesterol diet, ligated carotid", "value": "dose-dependent inhibition"}, {"measurement": "inhibition of the atherosclerosis progression in mice", "setting": "apoE −/− mice; summary statement", "value": "dramatic effect"}, {"measurement": "lipid content of the carotids (staining)", "setting": "apoE −/− mice; treated animals, 2 weeks", "value": "decrease"}]}]}
